From US9790178B2, “Pyrrolidinyl urea, thiourea, guanidine and cyanoguanidine compounds as TrkA kinase inhibitors” (Array BioPharma Inc., priority 2012, dated 2017)

Tests used:
Type in all cases: biochemical
[1] = test system: off-target kinases (panel of about 230 other kinases); assay: KinaseProfiler full kinase panel, overall selectivity; conditions: 10 μM concentration
Method: A representative compound of the invention (Example 20) was tested for off-target kinase activity at a concentration of 10 μM by Millipore, Inc. in their KinaseProfiler™ service against all the kinases available in their full kinase panel. The compound was run in duplicate at a concentration of ATP near the Km for each individual kinase according to Millipore's specifications. The results are shown in Table B. Data are reported as percent of control (POC) and are the average of the two replicates.
Such a drug profile would represent a safer approach to treating pain, inflammation, cancer and certain skin diseases than has been previously reported.

HIPK3 = target: T1, HIPK3 (Homo sapiens, UniProt Q9H422); assay: KinaseProfiler off-target kinase profiling; conditions: 10 μM, ATP near Km
T1 construct: purchased Millipore, Inc. (KinaseProfiler service)
Outline: (§1)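 10 μM test compound; [ATP] near Km for each enzyme; duplicate determinations; output = average % of control.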

EphB3 = target: T2, EphB3 (Homo sapiens, UniProt P54753); assay: KinaseProfiler off-target kinase profiling; conditions: 10 μM, ATP near Km
T2 construct: purchased Millipore, Inc. (KinaseProfiler service)
T2 sequence (P54753 34-998): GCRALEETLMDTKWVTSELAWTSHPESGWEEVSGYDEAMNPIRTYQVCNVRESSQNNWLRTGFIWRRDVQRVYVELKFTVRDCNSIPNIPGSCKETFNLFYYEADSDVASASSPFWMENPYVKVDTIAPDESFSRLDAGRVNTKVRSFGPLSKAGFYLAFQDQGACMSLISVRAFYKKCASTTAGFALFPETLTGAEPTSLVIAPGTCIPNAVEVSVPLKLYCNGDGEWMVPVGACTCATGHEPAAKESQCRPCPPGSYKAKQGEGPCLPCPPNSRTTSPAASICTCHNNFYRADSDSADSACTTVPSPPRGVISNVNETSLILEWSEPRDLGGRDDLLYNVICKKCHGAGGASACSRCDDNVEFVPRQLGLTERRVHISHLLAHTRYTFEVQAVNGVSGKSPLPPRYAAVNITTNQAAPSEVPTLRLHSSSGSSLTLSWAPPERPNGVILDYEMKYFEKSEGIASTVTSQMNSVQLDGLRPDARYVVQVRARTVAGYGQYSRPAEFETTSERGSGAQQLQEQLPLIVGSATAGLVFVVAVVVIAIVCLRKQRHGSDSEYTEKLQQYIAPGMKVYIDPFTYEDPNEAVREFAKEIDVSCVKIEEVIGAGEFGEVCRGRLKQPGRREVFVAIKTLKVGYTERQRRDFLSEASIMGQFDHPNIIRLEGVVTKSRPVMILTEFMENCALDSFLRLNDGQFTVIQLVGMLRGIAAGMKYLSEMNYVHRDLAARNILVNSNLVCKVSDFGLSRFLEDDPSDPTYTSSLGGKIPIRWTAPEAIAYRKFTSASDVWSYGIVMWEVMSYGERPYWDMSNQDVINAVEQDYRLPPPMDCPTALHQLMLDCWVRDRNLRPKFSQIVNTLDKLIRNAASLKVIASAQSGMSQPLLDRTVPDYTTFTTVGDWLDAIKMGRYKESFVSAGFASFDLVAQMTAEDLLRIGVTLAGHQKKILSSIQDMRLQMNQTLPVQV
Outline: as §1

Plk3 = target: T3, Plk3 (Homo sapiens, UniProt Q9H4B4); assay: KinaseProfiler off-target kinase profiling; conditions: 10 μM, ATP near Km
T3 construct: purchased Millipore (KinaseProfiler service)
T3 sequence (Q9H4B4 whole entry): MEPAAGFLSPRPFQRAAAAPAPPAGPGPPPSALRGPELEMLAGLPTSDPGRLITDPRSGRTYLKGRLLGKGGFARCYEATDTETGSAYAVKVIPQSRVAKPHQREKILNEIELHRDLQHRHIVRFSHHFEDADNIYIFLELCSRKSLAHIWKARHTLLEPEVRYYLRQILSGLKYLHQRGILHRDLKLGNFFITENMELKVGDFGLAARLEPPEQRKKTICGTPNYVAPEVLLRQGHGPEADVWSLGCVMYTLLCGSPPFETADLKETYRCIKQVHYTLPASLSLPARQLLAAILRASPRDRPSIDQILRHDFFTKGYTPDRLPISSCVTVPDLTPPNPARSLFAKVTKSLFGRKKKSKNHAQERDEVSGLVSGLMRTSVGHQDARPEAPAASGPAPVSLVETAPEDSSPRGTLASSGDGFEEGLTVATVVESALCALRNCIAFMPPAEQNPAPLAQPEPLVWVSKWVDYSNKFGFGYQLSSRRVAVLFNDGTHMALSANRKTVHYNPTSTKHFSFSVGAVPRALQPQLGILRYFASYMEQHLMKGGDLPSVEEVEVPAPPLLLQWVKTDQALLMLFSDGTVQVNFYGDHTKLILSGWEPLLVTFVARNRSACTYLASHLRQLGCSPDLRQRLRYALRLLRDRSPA
Outline: as §1

ALK = target: T4, ALK (Homo sapiens, UniProt Q9UM73); assay: KinaseProfiler off-target kinase profiling; conditions: 10 μM, ATP near Km
T4 construct: purchased Millipore, Inc. (KinaseProfiler service)
Outline: as §1

PTK6 = target: T5, PTK6 (Homo sapiens, UniProt Q13882); assay: KinaseProfiler off-target kinase profiling; conditions: 10 μM, ATP near Km
T5 construct: purchased Millipore (KinaseProfiler service)
T5 sequence (Q13882 whole entry): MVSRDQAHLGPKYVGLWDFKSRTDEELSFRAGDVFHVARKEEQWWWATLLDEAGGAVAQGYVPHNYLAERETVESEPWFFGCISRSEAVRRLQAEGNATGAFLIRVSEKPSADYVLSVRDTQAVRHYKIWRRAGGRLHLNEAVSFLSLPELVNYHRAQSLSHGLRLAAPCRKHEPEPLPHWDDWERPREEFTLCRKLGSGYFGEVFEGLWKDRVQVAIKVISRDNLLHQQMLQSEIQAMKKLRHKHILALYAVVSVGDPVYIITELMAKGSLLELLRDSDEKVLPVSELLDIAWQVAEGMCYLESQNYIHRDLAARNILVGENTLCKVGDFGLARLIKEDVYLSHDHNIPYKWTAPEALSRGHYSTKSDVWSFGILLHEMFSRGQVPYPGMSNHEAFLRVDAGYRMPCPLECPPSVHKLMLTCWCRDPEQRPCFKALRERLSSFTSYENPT
Outline: as §1

DAPK3 = target: T6, DAPK3 (Homo sapiens, UniProt O43293); assay: KinaseProfiler off-target kinase profiling; conditions: 10 μM, ATP near Km
T6 construct: purchased Millipore, Inc. (KinaseProfiler service)
Outline: as §1

ErbB4 = target: T7, ErbB4 (Homo sapiens, UniProt Q15303); assay: KinaseProfiler off-target kinase profiling; conditions: 10 μM, ATP near Km
T7 construct: purchased Millipore, Inc. (KinaseProfiler service)
Outline: as §1

GSK3alpha = target: T8, GSK3alpha (Homo sapiens, UniProt P49840); assay: KinaseProfiler off-target kinase profiling; conditions: 10 μM, ATP near Km
T8 construct: purchased Millipore, Inc. (KinaseProfiler service)
Outline: as §1

MINK = target: T9, MINK (Homo sapiens, UniProt Q8N4C8); assay: KinaseProfiler off-target kinase profiling; conditions: 10 μM, ATP near Km
T9 construct: purchased Millipore, Inc. (KinaseProfiler service)
Outline: as §1

IR Activated = target: T10, IR Activated (Homo sapiens, UniProt P06213); assay: KinaseProfiler off-target kinase profiling; conditions: 10 μM, ATP near Km
T10 construct: purchased Millipore, Inc. (KinaseProfiler service)
T10 sequence (P06213 1005-1310 limits assumed): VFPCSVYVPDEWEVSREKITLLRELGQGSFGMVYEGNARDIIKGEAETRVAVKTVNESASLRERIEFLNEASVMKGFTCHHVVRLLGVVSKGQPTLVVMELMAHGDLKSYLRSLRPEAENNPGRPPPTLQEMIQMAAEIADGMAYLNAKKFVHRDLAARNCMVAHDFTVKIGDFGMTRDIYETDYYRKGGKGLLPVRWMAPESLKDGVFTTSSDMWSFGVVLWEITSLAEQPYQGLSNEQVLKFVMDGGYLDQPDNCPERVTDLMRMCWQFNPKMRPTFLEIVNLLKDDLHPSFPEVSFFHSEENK
Outline: as §1

PDGFRbeta = target: T11, PDGFRbeta (Homo sapiens, UniProt P09619); assay: KinaseProfiler off-target kinase profiling; conditions: 10 μM, ATP near Km
T11 construct: purchased Millipore, Inc. (KinaseProfiler service)
Outline: as §1

PKAC-alpha = target: T12, PKAC-alpha (Homo sapiens, UniProt P17612); assay: KinaseProfiler off-target kinase profiling; conditions: 10 μM, ATP near Km
T12 construct: purchased Millipore, Inc. (KinaseProfiler service)
Outline: as §1

EphB2 = target: T13, EphB2 (Homo sapiens, UniProt P29323); assay: KinaseProfiler off-target kinase profiling; conditions: 10 μM, ATP near Km
T13 construct: purchased Millipore, Inc. (KinaseProfiler service)
Outline: as §1

ULK3 = target: T14, ULK3 (Homo sapiens, UniProt Q6PHR2); assay: KinaseProfiler off-target kinase profiling; conditions: 10 μM, ATP near Km
T14 construct: purchased Millipore, Inc. (KinaseProfiler service)
Outline: as §1

SRPK1 = target: T15, SRPK1 (Homo sapiens, UniProt Q96SB4); assay: KinaseProfiler off-target kinase profiling; conditions: 10 μM, ATP near Km
T15 construct: purchased Millipore, Inc. (KinaseProfiler service)
T15 sequence (Q96SB4 whole entry): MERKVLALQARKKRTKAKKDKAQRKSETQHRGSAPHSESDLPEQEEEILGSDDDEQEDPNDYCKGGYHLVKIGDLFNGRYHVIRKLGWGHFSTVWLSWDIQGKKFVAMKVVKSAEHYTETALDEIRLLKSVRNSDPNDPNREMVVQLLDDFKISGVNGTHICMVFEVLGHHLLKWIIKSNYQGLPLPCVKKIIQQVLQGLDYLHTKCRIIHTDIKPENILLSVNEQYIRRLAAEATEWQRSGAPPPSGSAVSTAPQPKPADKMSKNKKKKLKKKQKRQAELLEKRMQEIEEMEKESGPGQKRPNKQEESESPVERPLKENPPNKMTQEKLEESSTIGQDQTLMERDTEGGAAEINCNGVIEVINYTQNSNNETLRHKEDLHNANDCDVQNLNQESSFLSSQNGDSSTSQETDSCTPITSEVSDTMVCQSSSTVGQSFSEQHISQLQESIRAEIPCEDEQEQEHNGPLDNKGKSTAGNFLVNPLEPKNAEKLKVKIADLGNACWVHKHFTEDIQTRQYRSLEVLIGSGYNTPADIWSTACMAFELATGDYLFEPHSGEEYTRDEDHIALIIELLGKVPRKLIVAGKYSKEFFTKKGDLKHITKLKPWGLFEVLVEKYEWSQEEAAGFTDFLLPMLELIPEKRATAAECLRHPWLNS
Outline: as §1

p38alpha = target: T16, p38alpha (Homo sapiens, UniProt Q16539); assay: KinaseProfiler off-target kinase profiling; conditions: 10 μM, ATP near Km
T16 construct: purchased Millipore, Inc. (KinaseProfiler service)
T16 sequence (Q16539 whole entry): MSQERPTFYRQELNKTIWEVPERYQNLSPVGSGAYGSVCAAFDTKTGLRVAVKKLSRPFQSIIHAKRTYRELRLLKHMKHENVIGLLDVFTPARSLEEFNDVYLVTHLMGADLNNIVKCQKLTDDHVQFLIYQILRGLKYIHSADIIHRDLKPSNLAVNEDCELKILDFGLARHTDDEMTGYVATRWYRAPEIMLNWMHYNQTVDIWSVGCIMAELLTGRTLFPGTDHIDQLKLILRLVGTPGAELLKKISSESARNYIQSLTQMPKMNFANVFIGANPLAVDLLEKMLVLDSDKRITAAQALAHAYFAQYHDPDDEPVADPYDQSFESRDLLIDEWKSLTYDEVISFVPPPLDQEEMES
Outline: as §1

AKT3 = target: T17, AKT3 (Homo sapiens, UniProt Q9Y243); assay: KinaseProfiler off-target kinase profiling; conditions: 10 μM, ATP near Km
T17 construct: purchased Millipore, Inc. (KinaseProfiler service)
Outline: as §1

HIPK2 = target: T18, HIPK2 (Homo sapiens, UniProt Q9H2X6); assay: KinaseProfiler off-target kinase profiling; conditions: 10 μM, ATP near Km
T18 construct: purchased Millipore, Inc. (KinaseProfiler service)
Outline: as §1

TLK2 = target: T19, TLK2 (Homo sapiens, UniProt Q86UE8); assay: KinaseProfiler off-target kinase profiling; conditions: 10 μM, ATP near Km
T19 construct: purchased Millipore, Inc. (KinaseProfiler service)
Outline: as §1

CAMK2b = target: T20, CAMK2b (Homo sapiens, UniProt Q13554); assay: KinaseProfiler off-target kinase profiling; conditions: 10 μM, ATP near Km
T20 construct: purchased Millipore, Inc. (KinaseProfiler service)
Outline: as §1

CDK1/cyclinB = target: T21, CDK1/cyclinB (Homo sapiens, UniProt P06493); assay: KinaseProfiler off-target kinase profiling; conditions: 10 μM, ATP near Km
T21 construct: purchased Millipore, Inc. (KinaseProfiler service)
Outline: as §1

Fer = target: T22, Fer (Homo sapiens, UniProt P16591); assay: KinaseProfiler off-target kinase profiling; conditions: 10 μM, ATP near Km
T22 construct: purchased Millipore, Inc. (KinaseProfiler service)
Outline: as §1

TAK1 = target: T23, TAK1 (Homo sapiens, UniProt O43318); assay: KinaseProfiler off-target kinase profiling; conditions: 10 μM, ATP near Km
T23 construct: purchased Millipore, Inc. (KinaseProfiler service)
T23 sequence (O43318 1-303 limits assumed): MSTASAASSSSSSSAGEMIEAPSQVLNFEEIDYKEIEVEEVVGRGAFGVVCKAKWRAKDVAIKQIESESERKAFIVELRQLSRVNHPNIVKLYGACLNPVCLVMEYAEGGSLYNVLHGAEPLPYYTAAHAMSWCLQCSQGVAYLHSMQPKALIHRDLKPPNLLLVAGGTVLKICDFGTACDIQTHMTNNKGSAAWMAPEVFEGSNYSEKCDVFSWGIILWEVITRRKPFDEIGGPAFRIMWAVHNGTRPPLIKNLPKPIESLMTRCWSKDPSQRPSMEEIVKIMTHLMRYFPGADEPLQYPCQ
Outline: as §1

ZAP-70 = target: T24, ZAP-70 (Homo sapiens, UniProt P43403); assay: KinaseProfiler off-target kinase profiling; conditions: 10 μM, ATP near Km
T24 construct: purchased Millipore, Inc. (KinaseProfiler service)
Outline: as §1

KDR = target: T25, KDR (Homo sapiens, UniProt P35968); assay: KinaseProfiler off-target kinase profiling; conditions: 10 μM, ATP near Km
T25 construct: purchased Millipore, Inc. (KinaseProfiler service)
Outline: as §1

EphB4 = target: T26, EphB4 (Homo sapiens, UniProt P54760); assay: KinaseProfiler off-target kinase profiling; conditions: 10 μM, ATP near Km
T26 construct: purchased Millipore, Inc. (KinaseProfiler service)
Outline: as §1

NEK7 = target: T27, NEK7 (Homo sapiens, UniProt Q8TDX7); assay: KinaseProfiler off-target kinase profiling; conditions: 10 μM, ATP near Km
T27 construct: purchased Millipore, Inc. (KinaseProfiler service)
Outline: as §1

Abl = target: T28, Abl (Homo sapiens, UniProt P00519); assay: KinaseProfiler off-target kinase profiling; conditions: 10 μM, ATP near Km
T28 construct: purchased Millipore, Inc. (KinaseProfiler service)
T28 sequence (P00519 whole entry): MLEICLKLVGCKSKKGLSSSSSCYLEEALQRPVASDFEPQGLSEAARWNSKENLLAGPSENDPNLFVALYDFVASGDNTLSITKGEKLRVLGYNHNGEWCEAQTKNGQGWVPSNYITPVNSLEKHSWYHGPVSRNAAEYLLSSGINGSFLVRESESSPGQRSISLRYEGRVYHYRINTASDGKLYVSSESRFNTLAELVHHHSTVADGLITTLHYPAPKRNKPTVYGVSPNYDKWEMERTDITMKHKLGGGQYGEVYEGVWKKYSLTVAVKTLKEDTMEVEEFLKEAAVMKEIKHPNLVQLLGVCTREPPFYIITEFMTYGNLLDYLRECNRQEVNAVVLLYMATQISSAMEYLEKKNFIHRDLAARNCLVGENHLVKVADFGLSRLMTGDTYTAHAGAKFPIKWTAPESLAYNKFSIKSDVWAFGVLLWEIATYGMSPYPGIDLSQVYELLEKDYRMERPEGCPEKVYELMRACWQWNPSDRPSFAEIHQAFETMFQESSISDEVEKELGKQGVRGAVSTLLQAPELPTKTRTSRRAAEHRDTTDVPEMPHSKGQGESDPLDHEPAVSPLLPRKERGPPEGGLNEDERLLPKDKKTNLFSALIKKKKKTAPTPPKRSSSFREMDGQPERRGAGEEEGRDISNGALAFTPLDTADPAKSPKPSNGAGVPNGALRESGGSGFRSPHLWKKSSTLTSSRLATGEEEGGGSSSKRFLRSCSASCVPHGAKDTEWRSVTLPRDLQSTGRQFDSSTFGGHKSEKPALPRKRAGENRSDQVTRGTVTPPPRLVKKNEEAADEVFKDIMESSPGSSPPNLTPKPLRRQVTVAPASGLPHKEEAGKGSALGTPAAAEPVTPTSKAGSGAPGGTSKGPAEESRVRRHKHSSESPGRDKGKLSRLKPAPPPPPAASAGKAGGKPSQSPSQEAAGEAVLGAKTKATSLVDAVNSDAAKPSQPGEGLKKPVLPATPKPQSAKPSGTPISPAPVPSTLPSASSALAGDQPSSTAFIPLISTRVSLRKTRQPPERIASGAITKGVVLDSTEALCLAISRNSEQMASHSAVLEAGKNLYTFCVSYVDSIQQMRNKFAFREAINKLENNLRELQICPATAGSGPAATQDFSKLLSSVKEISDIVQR
Outline: as §1

PKCbetaI = target: T29, PKCbetaI (Homo sapiens, UniProt P05771); assay: KinaseProfiler off-target kinase profiling; conditions: 10 μM, ATP near Km
T29 construct: purchased Millipore, Inc. (KinaseProfiler service)
Outline: as §1

PKD2 = target: T30, PKD2 (Homo sapiens, UniProt Q9BZL6); assay: KinaseProfiler off-target kinase profiling; conditions: 10 μM, ATP near Km
T30 construct: purchased Millipore (KinaseProfiler service)
Outline: as §1

CDK5/p25 = target: T31, CDK5/p25 (Homo sapiens, UniProt Q00535); assay: KinaseProfiler off-target kinase profiling; conditions: 10 μM, ATP near Km
T31 construct: purchased Millipore, Inc. (KinaseProfiler service)
Outline: as §1

PAK3 = target: T32, PAK3 (Homo sapiens, UniProt O75914); assay: KinaseProfiler off-target kinase profiling; conditions: 10 μM, ATP near Km
T32 construct: purchased Millipore, Inc. (KinaseProfiler service)
Outline: as §1

mTOR/FKBP12 = target: T33, mTOR/FKBP12 (Homo sapiens, UniProt P42345); assay: KinaseProfiler off-target kinase profiling; conditions: 10 μM, ATP near Km
T33 construct: purchased Millipore, Inc. (KinaseProfiler service)
Outline: as §1

CLK2 = target: T34, CLK2 (Homo sapiens, UniProt P49760); assay: KinaseProfiler off-target kinase profiling; conditions: 10 μM, ATP near Km
T34 construct: purchased Millipore, Inc. (KinaseProfiler service)
Outline: as §1

Avg. POC (HIPK3): 105.5 POC | Avg. POC (EphB3): 107 POC | Avg. POC (Plk3): 99.5 POC | Avg. POC (ALK): 114 POC | Avg. POC (PTK6): 114 POC | Avg. POC (DAPK3): 103 POC | Avg. POC (ErbB4): 97.5 POC | Avg. POC (GSK3alpha): 109.5 POC | Avg. POC (MINK): 99 POC | Avg. POC (IR Activated): 108 POC | Avg. POC (PDGFRbeta): 114 POC | Avg. POC (PKAC-alpha): 114 POC | Avg. POC (EphB2): 104 POC | Avg. POC (ULK3): 108 POC | Avg. POC (SRPK1): 113.5 POC | Avg. POC (p38alpha): 97.5 POC | Avg. POC (AKT3): 104 POC | Avg. POC (HIPK2): 102 POC | Avg. POC (TLK2): 105 POC | Avg. POC (CAMK2b): 102 POC | Avg. POC (CDK1/cyclinB): 99 POC | Avg. POC (Fer): 91.5 POC | Avg. POC (TAK1): 97 POC | Avg. POC (ZAP-70): 102.5 POC | Avg. POC (KDR): 107 POC | Avg. POC (EphB4): 102 POC | Avg. POC (NEK7): 105.5 POC | Avg. POC (Abl): 114 POC | Avg. POC (PKCbetaI): 101 POC | Avg. POC (PKD2): 113.5 POC | Avg. POC (CDK5/p25): 111 POC | Avg. POC (PAK3): 219.5 POC | Avg. POC (mTOR/FKBP12): 110.5 POC | Avg. POC (CLK2): 106.5 POC
SMILES: COCCN1C[C@@H](NC(=O)Nc2c(-c3ccccc3)nc3c(C)nccn23)[C@H](c2ccc(F)c(F)c2)C1 [Example 20, 1-((3S,4R)-4-(3,4-difluorophenyl)-1-(2-methoxyethyl)pyrrolidin-3-yl)-3-(8-methyl-2-phenylimidazo[1,2-a]pyrazin-3-yl)urea]
selectivity for TrkA (and TrkB) versus other kinases in the panel [1]: largely inactive against off-target kinases
